A short description of data set [1]: ATP based toxicity assay (ATPlite), HepG2 cell line. Conditions: human, HepG2 cells, ATPlite (ATP levels). The protocol: Alternatively, cytotoxicity was determined via an ATP-assay: The ATPlite kit from Perkin Elmer was used to assess compound cytotoxicity on the HepG2 cell line by determination of the ATP (adenosine triphosphate) levels. ATP is a marker for functional integrity and cell viability, because it is present in all metabolically active cells and any form of cell injury will result in a rapid decline in cellular ATP concentration. After compound incubation, 1 volume of ATPlite solution was added to the cells and the luminescence signal was measured.

For data set [2], the system named is HBV. The data set can be described thus: anti HBV activity, HepG2.117 inducibly HBV producing cell line (Tet-off), intracellular HBV DNA by realtime PCR. Format: cell-based. To be noted: Hepatitis B virus, 72 h, HepG2.117 cells, 3 days of treatment.
Data set [3] is described as follows: Cytotoxicity, HepG2 cells, Resazurin assay. Format: cell-based. Conditions: human.
In data set [4] the test system is HBV. The data set can be described thus: anti-HBV activity, HepG2.2.15 stable transfected cell line, HBV DNA from secreted virions by realtime PCR. The format is cell-based. To be noted: Hepatitis B virus, 144 h, HepG2.2.15 cells, 6 days of treatment.

In the case of `Cn1cc(S(=O)(=O)NC2(C)CC(F)(F)C2)c(F)c1C(=O)Nc1ccnc(C#N)c1` [Compound 53, N-(2-cyano-4-pyridyl)-4-[(3,3-difluoro-1-methyl-cyclobutyl)sulfamoyl]-3-fluoro-1-methyl-pyrrole-2-carboxamide], the 50% cytotoxic concentration (CC50) at 4 days in data set [1] and in data set [3] was over 25000 nM each time. Further, in the data set with HBV [2], the 50% effective concentration (EC50) (commonly the concentration at which the effect is half-maximal) turned out to be 40 nM.

For the compound `Cc1cc(NC(=O)c2c(F)c(S(=O)(=O)N[C@H](C)C(F)(F)F)cn2C)cc(Br)n1` [Compound 154, N-(2-bromo-6-methyl-4-pyridyl)-3-fluoro-1-methyl-4-[[(1R)-2,2,2-trifluoro-1-methyl-ethyl]sulfamoyl]pyrrole-2-carboxamide], the 50% cytotoxic concentration (CC50) at 4 days in data set [1] and in data set [3] was over 25000 nM each time. Further, it took 80 nM to reach a half-maximal effect in the data set on HBV [2] (EC50).

As to `Cc1c(S(=O)(=O)N[C@H](C)C(F)(F)F)c(F)c(C(=O)Nc2cc(F)nc(F)c2)n1C` [Compound 199, N-(2,6-difluoro-4-pyridyl)-3-fluoro-1,5-dimethyl-4-[[(1R)-2,2,2-trifluoro-1-methyl-ethyl]sulfamoyl]pyrrole-2-carboxamide], the CC50 (usually the concentration that lowers cell viability or growth by half) at 4 days in data set [1] is over 25000 nM. In addition, the EC50 in the data set with HBV [2] is 6 nM; in the data set on HBV [4], under 100 nM.

In the case of `Cn1cc(S(=O)(=O)NC2(C(F)(F)F)CCC2)c(Cl)c1C(=O)Nc1ccnc(C(F)F)c1` [Compound 108, 3-chloro-N-[2-(difluoromethyl)-4-pyridyl]-1-methyl-4-[[1-(trifluoromethyl)cyclobutyl]sulfamoyl]pyrrole-2-carboxamide], the half-maximal cytotoxic concentration (CC50) at 4 days in data set [1] and in data set [3] was over 25000 nM in each case. In addition, a half-maximal response in the data set with HBV [2] (EC50) required 20 nM.

For the compound `Cn1cc(S(=O)(=O)NC2(C)CC(F)(F)C2)c(F)c1C(=O)Nc1ccnc(C(F)F)c1` [Compound 83, 4-[(3,3-difluoro-1-methyl-cyclobutyl)sulfamoyl]-N-[2-(difluoromethyl)-4-pyridyl]-3-fluoro-1-methyl-pyrrole-2-carboxamide], the CC50 at 4 days in data set [1] and in data set [3] was over 25000 nM in each case. This compound yielded a concentration for a half-maximal effect (EC50) in the data set with HBV [2] of 10 nM.

The compound `Cc1c(S(=O)(=O)N[C@H](C)C(F)(F)F)c(F)c(C(=O)Nc2ccnc(Cl)c2)n1C` [Compound 200, N-(2-chloro-4-pyridyl)-3-fluoro-1,5-dimethyl-4-[[(1R)-2,2,2-trifluoro-1-methyl-ethyl]sulfamoyl]pyrrole-2-carboxamide] returned a cytotoxic concentration (CC50) at 4 days in data set [1] of over 25000 nM. Also, the concentration for a half-maximal effect (EC50) with HBV [2] was 20 nM; in the data set on HBV [4], 110 nM.

Turning to `Cc1cc(NC(=O)c2c(F)c(S(=O)(=O)N[C@H](C)C(F)(F)F)cn2C)cc(C(F)F)n1` [Compound 179, N-[2-(difluoromethyl)-6-methyl-4-pyridyl]-3-fluoro-1-methyl-[[(1R)-2,2,2-trifluoro-1-methyl-ethyl]sulfamoyl]pyrrole-2-carboxamide], the CC50 at 4 days in data set [1] was over 25000 nM. For the same compound, the EC50 in the data set with HBV [2] turned out to be 70 nM; in the data set on HBV [4] it was 210 nM.

Consider `Cn1cc(S(=O)(=O)NC2(C)CC(F)(F)C2)c(Cl)c1C(=O)Nc1ccnc(Br)c1` [Compound 113, N-(2-bromo-4-pyridyl)-3-chloro-4-[(3,3-difluoro-1-methyl-cyclobutyl)sulfamoyl]-1-methyl-pyrrole-2-carboxamide], for which the half-maximal cytotoxic concentration (CC50) at 4 days in data set [1] was 23700 nM; in data set [3], over 25000 nM. The same compound yielded an EC50 with HBV [2] of 10 nM.

On to `Cc1cc(NC(=O)c2c(Cl)c(S(=O)(=O)N[C@H](C)C(C)(F)F)cn2C)cc(F)n1` [Compound 146, 3-chloro-4-[[(1R)-2,2-difluoro-1-methyl-propyl]sulfamoyl]-N-(2-fluoro-6-methyl-4-pyridyl)-1-methyl-pyrrole-2-carboxamide], for which the cytotoxic concentration (CC50) at 4 days in data set [1] and in data set [3] was over 25000 nM throughout. Further, in the data set with HBV [2], the EC50 is 30 nM.

For `Cn1cc(S(=O)(=O)NC2(C)CC(F)(F)C2)c(Cl)c1C(=O)Nc1cc(F)nc(F)c1` [Compound 115, 3-chloro-4-[(3,3-difluoro-1-methyl-cyclobutyl)sulfamoyl]-N-(2,6-difluoro-4-pyridyl)-1-methyl-pyrrole-2-carboxamide], the CC50 at 4 days in data set [1] and in data set [3] was over 25000 nM throughout. This compound also came in with a concentration for a half-maximal effect (EC50) in the data set with HBV [2] of 6 nM.

Consider `C[C@@H](NS(=O)(=O)c1cn(C)c(C(=O)Nc2ccnc(Br)c2F)c1F)C(C)(F)F` [Compound 176, N-(2-bromo-3-fluoro-4-pyridyl)-4-[[(1R)-2,2-difluoro-1-methyl-propyl]sulfamoyl]-3-fluoro-1-methyl-pyrrole-2-carboxamide], for which the 50% cytotoxic concentration (CC50) at 4 days in data set [1] is over 25000 nM. Also, the figures for the EC50 in the data set with HBV [2] and in the data set with HBV [4] were 3 nM and under 100 nM, respectively.

With `C[C@@H](NS(=O)(=O)c1cn(C)c(C(=O)Nc2ccnc(Br)c2)c1Cl)C(F)(F)F` [Compound 106, N-(2-bromo-4-pyridyl)-3-chloro-1-methyl-4-[[(1R)-2,2,2-trifluoro-1-methyl-ethyl]sulfamoyl]pyrrole-2-carboxamide], the CC50 at 4 days in data set [1] and in data set [3] was over 25000 nM each time. Moreover, in the data set with HBV [2], the EC50 came out at 20 nM.

With `C[C@@H](NS(=O)(=O)c1cn(C)c(C(=O)Nc2ccnc(Br)c2F)c1Cl)C(F)(F)F` [Compound 139, N-(2-bromo-3-fluoro-4-pyridyl)-3-chloro-1-methyl-4-[[(1R)-2,2,2-trifluoro-1-methyl-ethyl]sulfamoyl]pyrrole-2-carboxamide], the CC50 at 4 days in data set [1] and in data set [3] was over 25000 nM each time. The same compound gave an EC50 in the data set with HBV [2] of 20 nM.

For `Cc1cc(NC(=O)c2c(F)c(S(=O)(=O)N[C@H](C)C(C)(F)F)cn2C)cc(C(F)F)n1` [Compound 178, N-[2-(difluoromethyl)-6-methyl-4-pyridyl]-4-[[(1R)-2,2-difluoro-1-methyl-propyl]sulfamoyl]-3-fluoro-1-methyl-pyrrole-2-carboxamide], the CC50 at 4 days in data set [1] was over 25000 nM. The 50% effective concentration (EC50) with HBV [2] was found to be 50 nM; in the data set with HBV [4] it was 240 nM.

`Cc1cc(NC(=O)c2c(F)c(S(=O)(=O)NC3(C)CC(F)(F)C3)cn2C)cc(F)n1` [Compound 134, 4-[(3,3-difluoro-1-methyl-cyclobutyl)sulfamoyl]-3-fluoro-N-(2-fluoro-6-methyl-4-pyridyl)-1-methyl-pyrrole-2-carboxamide]: the cytotoxic concentration (CC50) at 4 days in data set [1] and in data set [3] was over 25000 nM throughout. The compound also returned an EC50 with HBV [2] of 10 nM.

On to `Cc1cc(NC(=O)c2c(F)c(S(=O)(=O)N[C@H](C)C(C)(F)F)cn2C)cc(Cl)n1` [Compound 158, N-(2-chloro-6-methyl-4-pyridyl)-4-[[(1R)-2,2-difluoro-1-methyl-propyl]sulfamoyl]-3-fluoro-1-methyl-pyrrole-2-carboxamide], for which the cytotoxic concentration (CC50) at 4 days in data set [1] and in data set [3] was over 25000 nM in each case. For the same compound, the concentration for a half-maximal effect (EC50) in the data set on HBV [2] is 50 nM.

On to `Cc1cc(NC(=O)c2c(F)c(S(=O)(=O)NC3(C(F)(F)F)CCC3)cn2C)cc(F)n1` [Compound 172, 3-fluoro-N-(2-fluoro-6-methyl-4-pyridyl)-1-methyl-4-[[1-(trifluoromethyl)cyclobutyl]sulfamoyl]pyrrole-2-carboxamide], for which the half-maximal cytotoxic concentration (CC50) at 4 days in data set [1] and in data set [3] was over 25000 nM throughout. In the data set on HBV [2], the response was half-maximal at 10 nM (EC50).

`Cc1cc(NC(=O)c2c(F)c(S(=O)(=O)N[C@H](C)C(C)(F)F)cn2C)cc(F)n1` [Compound 160, 4-[[(1R)-2,2-difluoro-1-methyl-propyl]sulfamoyl]-3-fluoro-N-(2-fluoro-6-methyl-4-pyridyl)-1-methyl-pyrrole-2-carboxamide]: the CC50 at 4 days in data set [1] and in data set [3] was over 25000 nM each time. In the data set with HBV [2], this compound yielded a concentration giving a half-maximal response (EC50) of 10 nM.

For `C[C@@H](NS(=O)(=O)c1cn(C)c(C(=O)Nc2cc(F)nc(F)c2Cl)c1Cl)C(F)(F)F` [Compound 185, 3-chloro-N-(3-chloro-2,6-difluoro-4-pyridyl)-1-methyl-4-[[(1R)-2,2,2-trifluoro-1-methyl-ethyl]sulfamoyl]pyrrole-2-carboxamide], the half-maximal cytotoxic concentration (CC50) at 4 days in data set [1] and in data set [3] was over 25000 nM in each case. This compound also displayed an EC50 with HBV [2] of 740 nM.

`C[C@@H](NS(=O)(=O)c1cn(C)c(C(=O)Nc2cc(F)nc(Br)c2)c1F)C(F)(F)F` [Compound 216, N-(2-bromo-6-fluoro-4-pyridyl)-3-fluoro-1-methyl-[[(1R)-2,2,2-trifluoro-1-methyl-ethyl]sulfamoyl]pyrrole-2-carboxamide] displayed a half-maximal cytotoxic concentration (CC50) at 4 days in data set [1] of over 25000 nM. The same compound registered a half-maximal effective concentration (EC50) with HBV [2] of 10 nM.

As to `Cc1nc(NC(=O)c2c(F)c(S(=O)(=O)N[C@H](C)C(F)(F)F)cn2C)ccc1F` [Compound 214, 3-fluoro-N-(5-fluoro-6-methyl-2-pyridyl)-1-methyl-4-[[(1R)-2,2,2-trifluoro-1-methyl-ethyl]sulfamoyl]pyrrole-2-carboxamide], in data set [1], the 50% cytotoxic concentration (CC50) at 4 days is over 25000 nM. The compound further yielded an EC50 in the data set with HBV [2] of 80 nM.

`Cn1cc(S(=O)(=O)NC2(C)CC(F)(F)C2)c(F)c1C(=O)Nc1cc(F)nc(F)c1` [Compound 132, 4-[(3,3-difluoro-1-methyl-cyclobutyl)sulfamoyl]-N-(2,6-difluoro-4-pyridyl)-3-fluoro-1-methyl-pyrrole-2-carboxamide]: the 50% cytotoxic concentration (CC50) at 4 days in data set [1] and in data set [3] was over 25000 nM in each case. This compound showed an EC50 in the data set on HBV [2] of 10 nM.

Compound `Cn1cc(S(=O)(=O)NC2(C(F)(F)F)COC2)c(F)c1C(=O)Nc1cc(F)nc(F)c1` [Compound 211] returned a cytotoxic concentration (CC50) at 4 days in data set [1] of over 25000 nM. In the data set on HBV [2], the EC50 is 50 nM.

With `C[C@@H](NS(=O)(=O)c1cc(C(=O)Nc2ccnc(C(F)F)c2)n(C)c1)C(C)(F)F` [Compound 100, 4-[[(1R)-2,2-difluoro-1-methyl-propyl]sulfamoyl]-N-[2-(difluoromethyl)-4-pyridyl]-1-methyl-pyrrole-2-carboxamide], the half-maximal cytotoxic concentration (CC50) at 4 days in data set [1] and in data set [3] was over 25000 nM throughout. In addition, the EC50 in the data set with HBV [2] amounted to 80 nM.

Source of the values: US11078193B2 (priority 2014, dated 2021).
